{
  "source": "paper PMC12406255",
  "about": "“Engineering Peptide Modulators for T‑Cell Migration by Structural Scaffold Matching” (Journal of Medicinal Chemistry, 2025)",
  "format_in_all_cases": "cell-based, human",
  "key": {"[1]": {"tested_on": "CD4+ cells of MS patients", "experiment": "Transwell migration assay with PBMC of MS patients, CD4+ cells", "conditions": "PBMC of treatment-naive MS patients; p = 0.0005", "method": "(§1) 5 Activity of the novel VhTI-pep 2 and pepitem on patient lymphocytes. PPBMCs were isolated from the blood of MS patients with a very recent disease flare receiving no immunosuppressive or immunomodulatory treatment in the past. The effect of the linear pepitem and VhTI-pep 2 was tested for the T-cell populations (A) CD3^+, (B) Th1, (C) CD4^+, (D) memory CD4^+, (E) CD8^+, and (F) memory CD8^+ cells. Data are shown as mean ± SD for 4 independent measurements. Statistical analysis was performed on the level of total counted cells using repeated measures one-way ANOVA with Dunnett’s post hoc test. Statistical significance is indicated as n.s. (not significant), * p < 0.05; ** p < 0.01; *** p < 0.001.\n(§2) Human microvascular endothelial cells (HMEC-1 cells, Cytion, Eppelheim, Germany) were cultured in MCDB-131 medium (with 2.2 g/L sodium bicarbonate, without L-glutamine, PAN-Biotech Aidenbach, Germany) supplemented with 10% fetal bovine serum (FBS, Capricorn Scientific, Ebsdorfergrund, Germany), 100 units/ml penicillin-streptomycin (Sigma-Aldrich) 10 ng/mL epidermal growth factor (BioLegend, San Diego, US), 1 μg/mL hydrocortisone (Sigma-Aldrich), and 10 mM L-glutamine (Sigma-Aldrich). For experiments, the cells were used between passage numbers 4–9. […]"}, "[2]": {"tested_on": "CD3+ cells of MS patients", "experiment": "Transwell migration assay with PBMC of MS patients, CD3+ cells", "conditions": "PBMC of treatment-naive MS patients; p = 0.0008; repeated measures one-way ANOVA, Dunnett", "method": "as §1, §2"}, "[3]": {"tested_on": "CD8+ cells of MS patients", "experiment": "Transwell migration assay with PBMC of MS patients, CD8+ cells", "conditions": "PBMC of treatment-naive MS patients; too few cells to test significance", "method": "as §1, §2"}},
  "note": "Positions of bridges follow the written chain, without caps; N, C: chain ends. Non-standard residues stand in square brackets, D forms with d. Residues, ends and D or L forms follow the SMILES beside them. Nle = CCCC[C@H](N)C(=O)O",
  "data": [
    {"compound": "CCCC[C@@H]1NC(=O)[C@H](C(C)C)NC(=O)[C@H](CCCCN)NC(=O)[C@@H](NC(=O)[C@H](CCC(N)=O)NC(=O)[C@H](CCC(=O)O)NC(C)=O)CSSC[C@@H](C(=O)N[C@@H](CCC(=O)O)C(=O)N[C@@H](CCCCN)C(N)=O)NC(=O)[C@H](CC(N)=O)NC(=O)[C@H](CC(=O)O)NC(=O)[C@H](CC(C)C)NC(=O)[C@@H]2CSSC[C@H](NC1=O)C(=O)N[C@@H](Cc1ccc(O)cc1)C(=O)N[C@@H](C)C(=O)N[C@@H](CCC(N)=O)C(=O)NCC(=O)N[C@@H](C)C(=O)N[C@@H](CCC(=O)O)C(=O)N[C@@H](CC(C)C)C(=O)N1CCC[C@H]1C(=O)N[C@@H](CCC(=O)O)C(=O)N[C@@H](CC(C)C)C(=O)N[C@@H](CC(C)C)C(=O)N[C@@H](CCCNC(=N)N)C(=O)N[C@@H](CCCNC(=N)N)C(=O)N2", "note": "[VhTI-pep 2] (Ac-EQCKV[Nle]CYAQGAELPELLRRCLDNCEK-NH2; disulfide 3-25, 7-21)", "values": [
      {"measurement": "migration of CD4+ cells of MS patients (in words)", "setting": "[1]", "result": "significantly reduced"},
      {"measurement": "migration of CD3+ cells of MS patients (in words)", "setting": "[2]", "result": "significantly reduced"},
      {"measurement": "migration of CD8+ cells of MS patients (in words)", "setting": "[3]", "result": "positive trend"}
    ]}
  ]
}
